Columns and labels:
[1] = Survival rate of rats after an acute coronary ligature; type: in vivo, rat
Experimental: Influence of various substances on the survival
rate of rats 60 minutes, 24 hours and 7 days after an
acute coronary ligature was determined following the
method of I. Lepran, et al., L. Szekeres, Acta
Physiologica Sci. Hungaricae 53, 190 (1979). The
substances were administered orally 5 minutes before
the acute coronary ligature.

[2] = Tolerance of peroral dose in mice; details: mouse, in vivo, po
Text: Set forth below is data obtained on the compounds of Examples 17, 19 and 20 that illustrates the pharmacological action of the compounds of the present invention.

[3] = test system: systolic blood pressure (SBP) and heart rate (HR); test: Systolic blood pressure and heart rate following peroral administration to conscious beagle dogs; type: in vivo, beagle dog; details: mean ± SEM
Text: Duration of the action of various substances on the systolic blood
heart rate (HR) following peroral administration to conscious beagle

[4] = test system: cardiovascular parameters (MAP, HR, LVSP, LVEDP, dp/dtmax, TPR, PAP, SV, CO); test: Cardiovascular actions following intravenous administration to anesthetized dogs (pentobarbital) with opened thorax and artificial respiration; type: in vivo, dog; details: for CO (cardiac output), change / PAP (blood pressure in the A. pulmonalis), change / SV (stroke volume), change: vs pre-value, unsigned
Text: (§1) venous administration to anesthetized dogs (pentobarbital)
(§2) with an opened thorax and artificial respiration.
as §1, §2

[5] = test system: T-wave increase in the ECG induced by lypressin; test: Influence on the T-wave increase in the ECG of the anesthetized rat induced by intravenous bolus injection of lypressin; type: in vivo; details: p.o.
Experimental: Influence of various compounds on the T-wave
increase in the ECG of the anesthetized rat induced by
intravenous bolus injection of lypressin was determined
following the method of M. Leitold et al., Drug Res.,
36, 1454 (1986). The substances were administered
perorally 30 minutes or at various times before the […]

[6] = 60 minutes, 100.0 mg/kg orally 5 min before ligature
[7] = 24 hours, 100.0 mg/kg orally 5 min before ligature
[8] = 7 days, 100.0 mg/kg orally 5 min before ligature

| Structure (SMILES) | Tolerated peroral dose [2] | CO (cardiac output), action of substance ([4]; 30 μg/kg i.v.) | CO (cardiac output), duration of action ([4]; 30 μg/kg i.v.) | PAP (blood pressure in the A. pulmonalis), action of substance ([4]; 30 μg/kg i.v.) | PAP (blood pressure in the A. pulmonalis), duration of action ([4]; 30 μg/kg i.v.) | SV (stroke volume), duration of action ([4]; 30 μg/kg i.v.) | CO (cardiac output), change ([4]; 30 μg/kg i.v.) | PAP (blood pressure in the A. pulmonalis), change ([4]; 30 μg/kg i.v.) | SV (stroke volume), change ([4]; 30 μg/kg i.v.) | CO (cardiac output), duration of action ([4]; 300 μg/kg i.v.) | PAP (blood pressure in the A. pulmonalis), duration of action ([4]; 300 μg/kg i.v.) | SV (stroke volume), action of substance ([4]; 300 μg/kg i.v.) | SV (stroke volume), duration of action ([4]; 300 μg/kg i.v.) | PAP (blood pressure in the A. pulmonalis), change ([4]; 300 μg/kg i.v.) | SV (stroke volume), change ([4]; 300 μg/kg i.v.) | CO (cardiac output), duration of action ([4]; 3000 μg/kg i.v.) | PAP (blood pressure in the A. pulmonalis), duration of action ([4]; 3000 μg/kg i.v.) | SV (stroke volume), duration of action ([4]; 3000 μg/kg i.v.) | CO (cardiac output), change ([4]; 3000 μg/kg i.v.) | Duration of action at the ED50 dose [5] | other results |
| --- | --- | --- | --- | --- | --- | --- | --- | --- | --- | --- | --- | --- | --- | --- | --- | --- | --- | --- | --- | --- | --- |
| COc1ccccc1N1CCN(CC(O)CO[C@H]2CO[C@H]3[C@@H]2OC[C@H]3O[N+](=O)[O-])CC1 (stereo partly drawn) [Example 17, 2-O-<3-[4-(2-Methoxyphenyl)-piperazinyl]-2-hydroxypropyl>-isosorbide-5-nitrate] | 500 mg/kg | 0.93 ± 0.07 l/M | 6 ± 3 min | 17.0 ± 4 mmHg | 2 ± 0.3 min | 2 ± 0.2 min | 0.07 ± 0.04 l/M | 1.3 ± 0.5 mmHg | 0.4 ± 0.2 mL/s | 73 ± 40 min | 1.4 ± 0.1 min | 3.7 ± 0.4 mL/s | 74 ± 43 min | 1.5 ± 0.5 mmHg | 0.7 ± 0.3 mL/s | > 75 min | 2 ± 0.6 min | > 75 min | 0.450 ± 0.025 l/m | 2 h | Number of rats surviving after an acute coronary ligature ([1]; 60 minutes, 30.0 mg/kg orally 5 min before ligature): 17/20; Number of rats surviving after an acute coronary ligature ([1]; 24 hours, 30.0 mg/kg orally 5 min before ligature): 17/20; Number of rats surviving after an acute coronary ligature ([1]; 7 days, 30.0 mg/kg orally 5 min before ligature): 17/20; SBP (systolic blood pressure), action of substance ([3]; 6.0 mg/kg p.o., after 1 hour): 91 ± 6 mmHg; HR (heart rate), action of substance ([3]; 6.0 mg/kg p.o., after 2 hours): 110 ± 16 Bts/M; SBP (systolic blood pressure), action of substance ([3]; 6.0 mg/kg p.o., after 2 hours): 89 ± 4 mmHg; HR (heart rate), action of substance ([3]; 6.0 mg/kg p.o., after 3 hours): 89 ± 8 Bts/M; SBP (systolic blood pressure), action of substance ([3]; 6.0 mg/kg p.o., after 3 hours): 97 ± 5 mmHg; HR (heart rate), action of substance ([3]; 6.0 mg/kg p.o., after 6 hours): 89 ± 5 Bts/M; HR (heart rate), action of substance ([3]; 6.0 mg/kg p.o., after 8 hours): 85 ± 7 Bts/M; SV (stroke volume), action of substance ([4]; 3000 μg/kg i.v.): 3.0 ± 0.6 mL/s; PAP (blood pressure in the A. pulmonalis), change ([4]; 3000 μg/kg i.v.): 2.3 ± 0.8 mmHg; SV (stroke volume), change ([4]; 3000 μg/kg i.v.): 2.6 ± 0.4 mL/s |
| COc1ccccc1N1CCN(CC(O)CO[C@@H]2CO[C@H]3[C@@H]2OC[C@H]3O[N+](=O)[O-])CC1 (stereo partly drawn) [Example 19, 5-O-<3-[4-(2-Methoxyphenyl)-piperazinyl]-2-hydroxypropyl>-isomannide-2-nitrate] | 500 mg/kg | – | – | – | – | – | – | – | – | – | – | – | – | – | – | – | – | – | – | 4 h | Number of rats surviving after an acute coronary ligature [1, 6]: 15/20; Number of rats surviving after an acute coronary ligature [1, 7]: 15/20; Number of rats surviving after an acute coronary ligature [1, 8]: 15/20; HR (heart rate), action of substance ([3]; 5.0 mg/kg p.o., after 2 hours): 90 ± 5 Bts/M; HR (heart rate), action of substance ([3]; 5.0 mg/kg p.o., after 3 hours): 85 ± 5 Bts/M; SBP (systolic blood pressure), action of substance ([3]; 5.0 mg/kg p.o., after 3 hours): 118 ± 6 mmHg; HR (heart rate), action of substance ([3]; 5.0 mg/kg p.o., after 6 hours): 86 ± 5 Bts/M |
| COc1ccccc1N1CCN(CC(O)CO[C@H]2CO[C@H]3[C@@H]2OC[C@@H]3O[N+](=O)[O-])CC1 (stereo partly drawn) [Example 20, 5-O-<3-[4-(2-Methoxyphenyl)-piperazinyl]-2-hydroxypropyl>-isoidide-2-nitrat] | 500 mg/kg | 0.81 ± 0.3 l/M | 12 ± 6 min | 16.0 ± 1 mmHg | 11 ± 6 min | 12 ± 6 min | 0.38 ± 0.1 l/M | 0.4 ± 0.2 mmHg | 2.3 ± 1 mL/s | 35 ± 23 min | 14 ± 13 min | 7.2 ± 2.5 mL/s | 33 ± 23 min | 0.7 ± 0.3 mmHg | 0.5 ± 2.9 mL/s | 3 ± 0.4 min | > 177 min | 4 ± 0.0 min | 0.87 ± 0.7 l/m | 4 h | Number of rats surviving after an acute coronary ligature [1, 6]: 14/20; Number of rats surviving after an acute coronary ligature [1, 7]: 14/20; Number of rats surviving after an acute coronary ligature [1, 8]: 14/20; HR (heart rate), action of substance ([3]; 5.0 mg/kg p.o., after 1 hour): 98 ± 7 Bts/M; SBP (systolic blood pressure), action of substance ([3]; 5.0 mg/kg p.o., after 1 hour): 97 ± 8 mmHg; SBP (systolic blood pressure), action of substance ([3]; 5.0 mg/kg p.o., after 2 hours): 95 ± 6 mmHg; HR (heart rate), action of substance ([3]; 5.0 mg/kg p.o., after 3 hours): 82 ± 7 Bts/M; SBP (systolic blood pressure), action of substance ([3]; 5.0 mg/kg p.o., after 3 hours): 106 ± 4 mmHg; HR (heart rate), action of substance ([3]; 5.0 mg/kg p.o., after 6 hours): 78 ± 6 Bts/M; HR (heart rate), action of substance ([3]; 5.0 mg/kg p.o., after 8 hours): 77 ± 6 Bts/M; SV (stroke volume), action of substance ([4]; 30 μg/kg i.v.): 7.5 ± 2 mL/s; CO (cardiac output), change ([4]; 300 μg/kg i.v.): 0.21 ± 0.6 l/M; PAP (blood pressure in the A. pulmonalis), change ([4]; 3000 μg/kg i.v.): 1.1 ± 0.3 mmHg |

Reference: patent US4891373A, “Aminopropanol derivatives of 1,4:3,6-dianhydrohexitol nitrates, processes for their preparation and their use as medicaments” (Pfizer Inc., priority 1988, dated 1990)
